In patent US9809574B2, “Isoindoline or isoquinoline compounds, a process for their preparation and pharmaceutical compositions containing them” (LES LABORATOIRES SERVIER, priority 2013, dated 2017):
Where a name gives a salt, the structure may show the parent alone.

Tests used:
[1] = test system: RS4; 11 leukaemia cell line; assay: In vitro cytotoxicity, Microculture Tetrazolium Assay (MTT); assay type: cell-based; conditions: 11 cells exposed for 48 hours
Procedure: The cytotoxicity studies were carried out on the RS4; 11 leukaemia cell line and on H146 small Cell Lung Carcinoma cell line. The cells are distributed onto microplates and exposed to the test compounds for 48 hours. The cell viability is then quantified by a colorimetric assay, the Microculture Tetrazolium Assay (Cancer Res., 1987, 47, 939-942).

[2] = target: Bcl-2 protein (histag-Bcl-2, UniProtKB P10415) (Homo sapiens (Human), UniProt P10415); assay: Inhibition of Bcl-2 by the fluorescence polarisation technique; assay type: binding; conditions: fluorescence polarisation test; incubation for 2 hours; read-out: IC50 (nM) Bcl-2 FP
Description: For partial inhibitors, the percentage fluorescence polarisation inhibition for a given concentration of the test compound is indicated.

Chain of Bcl-2 protein (P10415 whole entry): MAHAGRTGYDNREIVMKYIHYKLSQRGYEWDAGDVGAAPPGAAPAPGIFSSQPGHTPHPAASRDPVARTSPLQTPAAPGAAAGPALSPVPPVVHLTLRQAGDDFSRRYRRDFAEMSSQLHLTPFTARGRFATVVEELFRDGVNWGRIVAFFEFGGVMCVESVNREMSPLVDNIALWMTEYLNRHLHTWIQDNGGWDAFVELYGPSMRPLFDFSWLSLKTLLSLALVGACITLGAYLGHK

SMILES | IC50 ([1]; Homo sapiens) [nM] | IC50 [2] [nM] | IC50 [1] [nM]
C[C@@H]1Cc2ccccc2CN1C(=O)c1cc2c(cc1-c1cc(C(=O)N(C)c3ccc(O)cc3)c3n1CCCC3)CCN(C(=O)Oc1ccc(NCCN(C)C)cc1)C2 [Example 153, 4-{[2-(Dimethylamino)ethyl]amino}phenyl 6-{1-[(4-hydroxyphenyl)(methyl)carbamoyl]-5,6,7,8-tetrahydroindolizin-3-yl}-7-[(3R)-3-methyl-1,2,3,4-tetrahydroisoquinoline-2-carbonyl]-1,2,3,4-tetrahydroisoquinoline-2-carboxylate] | 3.6 | 4.2 | 
Cc1c(C(=O)N(C)c2ccc(O)cc2)cc(-c2cc3c(cc2C(=O)N2Cc4ccccc4C[C@H]2C)CN(C(=O)Oc2cccc(C(=O)O)c2)CC3)n1C [Example 715, 3-(6-{4-[(4-Hydroxyphenyl)(methyl)carbamoyl]-1,5-dimethyl-1H-pyrrol-2-yl}-7-[(3R)-3-methyl-1,2,3,4-tetrahydroisoquinoline-2-carbonyl]-1,2,3,4-tetrahydroisoquinoline-2-carbonyloxy)benzoic acid] | > 150 | 2.2 | 
CN(C(=O)c1cc(-c2cc3c(cc2C(=O)N2Cc4ccccc4C[C@H]2CN2CCOCC2)CN(C(=O)OC(C)(C)C)CC3)n2c1CCCC2)c1ccc(O)cc1 [Example 1, tert-Butyl 6-{1-[(4-hydroxyphenyl)(methyl)carbamoyl]-5,6,7,8-tetrahydroindolizin-3-yl}-7-[(3S)-3-(morpholin-4-ylmethyl)-1,2,3,4-tetrahydroisoquinoline-2-carbonyl]-1,2,3,4-tetrahydroisoquinoline-2-carboxylate] | 140 | 13 | 
Cc1c(C(=O)N(C)c2ccc(O)cc2)cc(-c2cc3c(cc2C(=O)N2Cc4ccccc4C[C@H]2CN2CCOCC2)CN(C(=O)/C=C/c2ccccc2)CC3)n1C [Example 131, N-(4-Hydroxyphenyl)-N,1,2-trimethyl-5-{7-[(3S)-3-(morpholin-4-ylmethyl)-1,2,3,4-tetrahydroisoquinoline-2-carbonyl]-2-[(2E)-3-phenylprop-2-enoyl]-1,2,3,4-tetrahydroisoquinolin-6-yl}-1H-pyrrole-3-carboxamide] | 11 | 4 | 
CN(C(=O)c1cc(-c2cc3c(cc2C(=O)N2Cc4ccccc4C[C@H]2CN2CCOCC2)CN(C(=O)Oc2ccc(C(N)=O)cc2)CC3)n2c1CCCC2)c1ccc(O)cc1 [Example 141, 4-Carbamoylphenyl 6-{1-[(4-hydroxyphenyl)(methyl)carbamoyl]-5,6,7,8-tetrahydroindolizin-3-yl}-7-[(3S)-3-(morpholin-4-ylmethyl)-1,2,3,4-tetrahydroisoquinoline-2-carbonyl]-1,2,3,4-tetrahydroisoquinoline-2-carboxylate] | 82 | 5.9 | 
CCCCN(CCCC)C(=O)c1cc(-c2cc3c(cc2C(=O)N2CCc4ccccc4C2)CN(C(=O)Oc2ccccc2)CC3)n(C)c1C [Example 161, Phenyl 6-[4-(dibutylcarbamoyl)-1,5-dimethyl-1H-pyrrol-2-yl]-7-(1,2,3,4-tetrahydroisoquinoline-2-carbonyl)-1,2,3,4-tetrahydroisoquinoline-2-carboxylate] | > 150 | 68 | 
C[C@@H]1Cc2ccccc2CN1C(=O)c1cc2c(cc1-c1cc(C(=O)N(C)c3ccc(O)cc3)c3n1CCCC3)CN(C(=O)Nc1ccc(N3CCN(C)CC3)cc1)C2 [Example 65, 5-{1-[(4-Hydroxyphenyl)(methyl)carbamoyl]-5,6,7,8-tetrahydroindolizin-3-yl}-6-[(3R)-3-methyl-1,2,3,4-tetrahydroisoquinoline-2-carbonyl]-N-[4-(4-methylpiperazin-1-yl)phenyl]-2,3-dihydro-1H-isoindole-2-carboxamide] | 51 | 6.5 | 
Cc1c(C(=O)N(C)c2ccc(O)cc2)cc(-c2cc3c(cc2C(=O)N2Cc4ccccc4C[C@H]2CN2CCOCC2)CN(C(=O)Oc2ccc4[nH]ccc4c2)CC3)n1C [Example 577, 1H-Indol-5-yl 6-{4-[(4-hydroxyphenyl)(methyl)carbamoyl]-1,5-dimethyl-1H-pyrrol-2-yl}-7-[(3S)-3-(morpholin-4-ylmethyl)-1,2,3,4-tetrahydroisoquinoline-2-carbonyl]-1,2,3,4-tetrahydroisoquinoline-2-carboxylate] | 4.7 | 5.9 | 
Cc1c(C(=O)N(C)c2ccc(O)cc2)cc(-c2cc3c(cc2C(=O)N2Cc4ccccc4C[C@H]2C)CN(C(=O)NC2CCCCC2)CC3)n1C [Example 792, N-Cyclohexyl-6-{4-[(4-hydroxyphenyl)(methyl)carbamoyl]-1,5-dimethyl-1H-pyrrol-2-yl}-7-[(3R)-3-methyl-1,2,3,4-tetrahydroisoquinoline-2-carbonyl]-1,2,3,4-tetrahydroisoquinoline-2-carboxamide] | 21 | 4.6 | 
CN(C(=O)c1cc(-c2cc3c(cc2C(=O)N2Cc4ccccc4C[C@H]2CN2CCOCC2)CN(C(=O)CCc2ccccc2)C3)n2c1CCCC2)c1ccc(O)cc1 [Example 9, N-(4-Hydroxyphenyl)-N-methyl-3-{6-[(3S)-3-(morpholin-4-ylmethyl)-1,2,3,4-tetrahydroisoquinoline-2-carbonyl]-2-(3-phenylpropanoyl)-2,3-dihydro-1H-isoindol-5-yl}-5,6,7,8-tetrahydroindolizine-1-carboxamide hydrochloride] | 125 | 9 | 
CCCCN(CCCC)C(=O)c1cc(-c2cc3c(cc2C(=O)N2Cc4ccccc4C[C@H]2CN2CCOCC2)CN(C(=O)Cc2ccccc2)CC3)n(C)c1C [Example 165, N,N-Dibutyl-1,2-dimethyl-5-{7-[(3S)-3-(morpholin-4-ylmethyl)-1,2,3,4-tetrahydroisoquinoline-2-carbonyl]-2-(2-phenylacetyl)-1,2,3,4-tetrahydroisoquinolin-6-yl}-1H-pyrrole-3-carboxamide] | > 150 | 18 | 
Cc1c(C(=O)N(C)c2ccc(O)cc2)cc(-c2cc3c(cc2C(=O)N2Cc4ccccc4C[C@H]2C)CN(C(=O)Oc2cccc(OCCN(C)C)c2)CC3)n1C [Example 434, 3-[2-(Dimethylamino)ethoxy]phenyl 6-{4-[(4-hydroxyphenyl)(methyl)carbamoyl]-1,5-dimethyl-1H-pyrrol-2-yl}-7-[(3R)-3-methyl-1,2,3,4-tetrahydroisoquinoline-2-carbonyl]-1,2,3,4-tetrahydrisoquinoline-2-carboxylate] |  | 2.9 | 1.6
Cc1c(C(=O)N(C)c2ccc(O)cc2)cc(-c2cc3c(cc2C(=O)N2Cc4ccccc4C[C@H]2CN2CCOCC2)CN(C(=O)CCC2CCCCC2)CC3)n1C [Example 132, 5-[2-(3-Cyclohexylpropanoyl)-7-[(3S)-3-(morpholin-4-ylmethyl)-1,2,3,4-tetrahydroisoquinoline-2-carbonyl]-1,2,3,4-tetrahydroisoquinolin-6-yl]-N-(4-hydroxyphenyl)-N,1,2-trimethyl-1H-pyrrole-3-carboxamide] | 32 | 4.6 | 
Cc1c(C(=O)N(C)c2ccc(O)cc2)cc(-c2cc3c(cc2C(=O)N2Cc4ccccc4C[C@H]2C)CN(C(=O)Oc2ccc(C#N)cc2)CC3)n1C [Example 147, 4-Cyanophenyl 6-{4-[(4-hydroxyphenyl)(methyl)carbamoyl]-1,5-dimethyl-1H-pyrrol-2-yl}-7-[(3R)-3-methyl-1,2,3,4-tetrahydroisoquinoline-2-carbonyl]-1,2,3,4-tetrahydroisoquinoline-2-carboxylate] | 2.3 | 3.2 | 
Cc1c(C(=O)N(C)c2ccc(O)cc2)cc(-c2cc3c(cc2C(=O)N2Cc4ccccc4C[C@H]2CN(C)C)CN(C(=O)Oc2ccccc2)CC3)n1C [Example 211, Phenyl 7-[(3S)-3-[(dimethylamino)methyl]-1,2,3,4-tetrahydroisoquinoline-2-carbonyl]-6-{4-[(4-hydroxyphenyl)(methyl)carbamoyl]-1,5-dimethyl-1H-pyrrol-2-yl}-1,2,3,4-tetrahydroisoquinoline-2-carboxylate] | 6.9 | 3.4 | 
CCS(=O)(=O)N1CCc2cc(-c3cc(C(=O)N(C)c4ccc(O)cc4)c4n3CCCC4)c(C(=O)N3Cc4ccccc4C[C@H]3C)cc2C1 [Example 56, 3-[2-(Ethanesulfonyl)-7-[(3R)-3-methyl-1,2,3,4-tetrahydroisoquinoline-2-carbonyl]-1,2,3,4-tetrahydroisoquinolin-6-yl]-N-(4-hydroxyphenyl)-N-methyl-5,6,7,8-tetrahydroindolizine-1-carboxamide] | 59 | 3.8 | 
CN(C)C(=O)c1ccc(OC(=O)N2CCc3cc(-c4cc(C(=O)N(C)c5ccc(O)cc5)c5n4CCCC5)c(C(=O)N4Cc5ccccc5C[C@H]4CN4CCOCC4)cc3C2)cc1 [Example 142, 4-(Dimethylcarbamoyl)phenyl 6-{1-[(4-hydroxyphenyl)(methyl)carbamoyl]-5,6,7,8-tetrahydroindolizin-3-yl}-7-[(3S)-3-(morpholin-4-ylmethyl)-1,2,3,4-tetrahydroisoquinoline-2-carbonyl]-1,2,3,4-tetrahydroisoquinoline-2-carboxylate] | 53 | 5.5 | 
CN(C(=O)c1cc(-c2cc3c(cc2C(=O)N2Cc4ccccc4C[C@H]2CN2CCOCC2)CN(C(=O)Oc2ccc(Cl)cc2)CC3)n2c1CCCC2)c1ccc(O)cc1 [Example 122, 4-Chlorophenyl 6-{1-[(4-hydroxyphenyl)(methyl)carbamoyl]-5,6,7,8-tetrahydroindolizin-3-yl}-7-[(3S)-3-(morpholin-4-ylmethyl)-1,2,3,4-tetrahydroisoquinoline-2-carbonyl]-1,2,3,4-tetrahydroisoquinoline-2-carboxylate] | 5.4 | 2.6 | 
